# Reference: ChEMBL document CHEMBL4507257, “Data for DCP probe ABT-100” (2021)
# Activity calls are given as the source filed them. The rule behind the calls is not given here.
# What was measured:
# Aurora kinase B = Aurora kinase B (Homo sapiens, UniProt Q96GD4); test: Inhibition of AURKB at compound concentration of 10.0 uM using the ScanMax (DiscoverX)
# [1] = target: 5-hydroxytryptamine receptor 7 (Homo sapiens) (UniProt P34969); test: 5-HT7 (h) Ligand binding assay; settings: Compound concentration 10.0 uM
# Sequence of 5-hydroxytryptamine receptor 7 (Homo sapiens) (P34969 whole entry): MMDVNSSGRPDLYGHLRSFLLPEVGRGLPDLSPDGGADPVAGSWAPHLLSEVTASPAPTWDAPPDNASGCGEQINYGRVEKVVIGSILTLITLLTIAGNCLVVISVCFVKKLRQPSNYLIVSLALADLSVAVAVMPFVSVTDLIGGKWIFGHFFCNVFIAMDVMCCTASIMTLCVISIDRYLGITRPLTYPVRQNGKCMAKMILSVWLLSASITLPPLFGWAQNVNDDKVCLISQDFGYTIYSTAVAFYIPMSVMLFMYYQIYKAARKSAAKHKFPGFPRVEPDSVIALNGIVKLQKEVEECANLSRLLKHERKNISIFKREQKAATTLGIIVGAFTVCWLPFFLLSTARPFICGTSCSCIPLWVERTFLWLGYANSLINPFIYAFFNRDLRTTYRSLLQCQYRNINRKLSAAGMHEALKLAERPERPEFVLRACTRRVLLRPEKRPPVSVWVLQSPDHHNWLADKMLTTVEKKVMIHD
# [2] = target: Calcium-activated potassium channel (Homo sapiens) (UniProt Q92952+Q9UGI6+Q12791+O15554+Q9H2S1+A8MYU2); test: K+ channel (Ca2+ - dependent) Ligand binding assay; type: protein assay; settings: Compound concentration 10.0 uM
# [3] = Immunoblot method to monitor prenylation inhibition of Ras; design: species or system Homo sapiens
# [4] = target: voltage-dependent potassium channel (Homo sapiens, UniProt O43525+O43526+O95259+P16389+P17658+P22001+P22459+P22460+P48547+P51787+P56696+Q03721+Q09470+Q12809+Q14003+Q14721+Q16322+Q6PIU1+Q8NCM2+Q8TAE7+Q8TDN1+Q8TDN2+Q92953+Q96KK3+Q96L42+Q96PR1+Q96RP8+Q9BQ31+Q9H252+Q9H3M0+Q9NR82+Q9NS40+Q9NSA2+Q9NZV8+Q9UIX4+Q9UJ96+Q9UK17+Q9ULD8+Q9ULS6+Q9UQ05); test: K+ channel (Volt-dependent) Ligand binding assay; type: protein assay; settings: compound concentration 10 uM
# [5] = target: Muscarinic acetylcholine receptor M2 (Homo sapiens) (UniProt P08172); test: M2 (h) Ligand binding assay; settings: Compound concentration 10.0 uM
# [6] = target: Substance-P receptor (Homo sapiens) (UniProt P25103); test: NK1 (h) Ligand binding assay
# Sequence of Substance-P receptor (Homo sapiens) (P25103 whole entry): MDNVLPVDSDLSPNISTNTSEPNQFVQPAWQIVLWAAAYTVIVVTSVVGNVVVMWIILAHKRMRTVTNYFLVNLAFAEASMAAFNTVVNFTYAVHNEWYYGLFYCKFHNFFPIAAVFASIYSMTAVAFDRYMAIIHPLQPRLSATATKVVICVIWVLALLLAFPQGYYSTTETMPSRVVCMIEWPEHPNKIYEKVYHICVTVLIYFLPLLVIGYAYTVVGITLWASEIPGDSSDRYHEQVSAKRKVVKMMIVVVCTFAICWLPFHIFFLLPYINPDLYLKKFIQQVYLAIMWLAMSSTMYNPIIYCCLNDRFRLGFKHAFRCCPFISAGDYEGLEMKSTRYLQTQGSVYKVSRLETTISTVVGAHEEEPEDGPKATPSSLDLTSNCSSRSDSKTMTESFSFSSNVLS
# [7] = target: Mu-type opioid receptor (Homo sapiens) (UniProt P35372); test: Mu (h) Ligand binding assay; settings: Compound concentration 10.0 uM
# Sequence of Mu-type opioid receptor (Homo sapiens) (P35372 whole entry): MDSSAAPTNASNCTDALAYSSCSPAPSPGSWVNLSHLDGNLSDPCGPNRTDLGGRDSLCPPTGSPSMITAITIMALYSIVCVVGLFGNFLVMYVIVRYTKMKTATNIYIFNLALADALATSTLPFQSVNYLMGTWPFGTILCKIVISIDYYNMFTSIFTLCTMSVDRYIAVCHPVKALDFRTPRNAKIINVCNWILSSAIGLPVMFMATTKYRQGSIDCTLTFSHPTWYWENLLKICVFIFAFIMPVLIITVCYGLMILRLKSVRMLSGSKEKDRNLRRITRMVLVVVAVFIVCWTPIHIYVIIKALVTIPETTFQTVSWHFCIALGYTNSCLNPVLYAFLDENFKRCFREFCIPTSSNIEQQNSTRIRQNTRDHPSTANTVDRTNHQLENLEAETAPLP
# [8] = target: Serine/threonine-protein kinase Nek7 (Homo sapiens, UniProt Q8TDX7); test: Inhibition of NEK7 at compound concentration of 10.0 uM using the ScanMax (DiscoverX)
# Sequence of Serine/threonine-protein kinase Nek7 (Q8TDX7 whole entry): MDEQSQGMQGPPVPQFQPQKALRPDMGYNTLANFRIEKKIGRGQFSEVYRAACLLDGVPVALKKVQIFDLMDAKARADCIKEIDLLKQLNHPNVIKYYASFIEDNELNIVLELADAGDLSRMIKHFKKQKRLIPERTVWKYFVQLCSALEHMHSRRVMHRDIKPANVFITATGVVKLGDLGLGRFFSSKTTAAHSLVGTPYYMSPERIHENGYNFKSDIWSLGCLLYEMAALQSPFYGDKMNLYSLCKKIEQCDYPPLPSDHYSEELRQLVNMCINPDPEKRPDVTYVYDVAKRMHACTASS
# [9] = system: Glutamate receptor ionotropic NMDA, PCP site (Homo sapiens); test: PCP Ligand binding assay
# [10] = target: Kappa-type opioid receptor (Homo sapiens) (UniProt P41145); test: Kappa (h) Ligand binding assay; settings: Compound concentration 10.0 uM
# [11] = target: Neuropeptide Y receptor type 2 (Homo sapiens) (UniProt P49146); test: Y2 (h) Ligand binding assay; settings: Compound concentration 10.0 uM
# Sequence of Neuropeptide Y receptor type 2 (Homo sapiens) (P49146 whole entry): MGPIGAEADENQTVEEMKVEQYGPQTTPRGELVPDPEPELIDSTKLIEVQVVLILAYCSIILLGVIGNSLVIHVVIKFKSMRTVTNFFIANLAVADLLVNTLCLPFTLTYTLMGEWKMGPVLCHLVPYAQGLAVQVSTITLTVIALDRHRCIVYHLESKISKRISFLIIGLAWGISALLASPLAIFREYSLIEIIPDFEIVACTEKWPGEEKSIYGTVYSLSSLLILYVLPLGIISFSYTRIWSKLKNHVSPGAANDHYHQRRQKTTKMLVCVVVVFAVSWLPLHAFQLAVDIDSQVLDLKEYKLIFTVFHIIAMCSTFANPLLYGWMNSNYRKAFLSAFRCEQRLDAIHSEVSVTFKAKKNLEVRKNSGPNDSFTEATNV
# [12] = target: Thromboxane A2 receptor (Homo sapiens) (UniProt P21731); test: TXA2/PGH2 (h) Ligand binding assay; settings: Compound concentration 10.0 uM
# Sequence of Thromboxane A2 receptor (Homo sapiens) (P21731 whole entry): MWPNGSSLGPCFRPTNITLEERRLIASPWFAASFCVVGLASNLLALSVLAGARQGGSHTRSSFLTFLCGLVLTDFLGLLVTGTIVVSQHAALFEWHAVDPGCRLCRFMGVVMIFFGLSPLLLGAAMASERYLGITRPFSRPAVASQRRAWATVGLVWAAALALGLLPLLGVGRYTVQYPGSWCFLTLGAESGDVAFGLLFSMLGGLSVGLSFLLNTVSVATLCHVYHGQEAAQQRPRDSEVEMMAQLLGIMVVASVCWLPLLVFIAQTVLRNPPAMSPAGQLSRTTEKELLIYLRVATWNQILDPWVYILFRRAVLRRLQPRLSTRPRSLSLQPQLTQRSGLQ
# [13] = target: Prostacyclin receptor (Homo sapiens) (UniProt P43119); test: PGI2 (h) Ligand binding assay; settings: Compound concentration 10.0 uM
# Sequence of Prostacyclin receptor (Homo sapiens) (P43119 whole entry): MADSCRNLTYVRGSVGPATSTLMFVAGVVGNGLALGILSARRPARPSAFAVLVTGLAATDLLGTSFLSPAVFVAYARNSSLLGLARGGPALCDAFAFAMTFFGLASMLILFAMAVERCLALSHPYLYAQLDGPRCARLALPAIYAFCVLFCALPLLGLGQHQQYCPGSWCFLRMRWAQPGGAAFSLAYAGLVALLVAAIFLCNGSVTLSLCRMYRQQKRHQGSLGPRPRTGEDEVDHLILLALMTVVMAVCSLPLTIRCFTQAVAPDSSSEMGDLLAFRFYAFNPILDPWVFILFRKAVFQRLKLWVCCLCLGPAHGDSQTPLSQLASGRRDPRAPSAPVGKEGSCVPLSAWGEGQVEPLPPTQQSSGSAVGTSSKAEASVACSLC
# [14] = target: Vasoactive intestinal polypeptide receptor 1 (Homo sapiens) (UniProt P32241); test: VIP1 (h) Ligand binding assay
# Sequence of Vasoactive intestinal polypeptide receptor 1 (Homo sapiens) (P32241 whole entry): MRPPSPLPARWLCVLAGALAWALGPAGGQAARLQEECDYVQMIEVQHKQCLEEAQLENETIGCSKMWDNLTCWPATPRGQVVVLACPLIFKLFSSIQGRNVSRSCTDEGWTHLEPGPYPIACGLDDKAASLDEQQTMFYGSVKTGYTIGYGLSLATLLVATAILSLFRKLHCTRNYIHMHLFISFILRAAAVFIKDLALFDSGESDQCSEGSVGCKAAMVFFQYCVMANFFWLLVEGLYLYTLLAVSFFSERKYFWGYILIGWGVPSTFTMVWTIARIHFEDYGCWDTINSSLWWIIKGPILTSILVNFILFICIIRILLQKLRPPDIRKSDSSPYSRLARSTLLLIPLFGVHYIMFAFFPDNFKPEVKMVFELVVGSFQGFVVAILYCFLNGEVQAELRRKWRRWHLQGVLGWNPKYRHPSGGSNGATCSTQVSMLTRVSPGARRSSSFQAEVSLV
# [15] = target: Delta-type opioid receptor (Homo sapiens) (UniProt P41143); test: Delta (h) Ligand binding assay; settings: Compound concentration 10.0 uM
# [16] = target: T1, 5-hydroxytryptamine receptor 2C (Homo sapiens) (UniProt P28335); test: 5-HT2C (h) Ligand binding assay; settings: Compound concentration 10.0 uM
# T1 sequence (whole entry): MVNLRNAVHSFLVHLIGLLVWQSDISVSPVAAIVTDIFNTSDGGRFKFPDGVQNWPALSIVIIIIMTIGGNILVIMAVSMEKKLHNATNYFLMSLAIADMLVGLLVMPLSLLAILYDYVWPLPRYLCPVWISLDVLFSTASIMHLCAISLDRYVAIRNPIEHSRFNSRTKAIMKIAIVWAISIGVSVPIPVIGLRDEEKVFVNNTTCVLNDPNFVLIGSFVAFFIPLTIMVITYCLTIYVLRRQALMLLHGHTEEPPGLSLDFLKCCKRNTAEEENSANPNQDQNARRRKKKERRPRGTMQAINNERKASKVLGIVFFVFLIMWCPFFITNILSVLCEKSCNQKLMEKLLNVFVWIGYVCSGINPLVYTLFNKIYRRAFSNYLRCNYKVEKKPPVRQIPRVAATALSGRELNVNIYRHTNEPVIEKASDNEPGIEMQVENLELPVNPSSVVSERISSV
# [17] = target: B2 bradykinin receptor (Homo sapiens) (UniProt P30411); test: B2 (h) Ligand binding assay; settings: Compound concentration 10.0 uM
# Sequence of B2 bradykinin receptor (Homo sapiens) (P30411 whole entry): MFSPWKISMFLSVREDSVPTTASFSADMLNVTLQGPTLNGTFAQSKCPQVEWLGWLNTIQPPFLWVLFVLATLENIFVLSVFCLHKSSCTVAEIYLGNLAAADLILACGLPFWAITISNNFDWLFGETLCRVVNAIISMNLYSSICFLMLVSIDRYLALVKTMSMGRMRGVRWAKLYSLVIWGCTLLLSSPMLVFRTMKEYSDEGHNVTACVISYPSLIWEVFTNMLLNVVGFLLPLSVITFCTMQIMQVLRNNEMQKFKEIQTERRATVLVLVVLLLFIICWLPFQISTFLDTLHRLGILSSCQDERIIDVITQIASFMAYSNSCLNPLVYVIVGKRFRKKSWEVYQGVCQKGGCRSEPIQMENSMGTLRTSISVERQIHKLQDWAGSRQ
# [18] = target: 5-hydroxytryptamine receptor 1B (Homo sapiens) (UniProt P28222); test: 5-HT1B Ligand binding assay; settings: Compound concentration 10.0 uM
# [19] = target: 5-hydroxytryptamine receptor 5A (Homo sapiens) (UniProt P47898); test: 5-HT5A (h) Ligand binding assay; settings: Compound concentration 10.0 uM
# Sequence of 5-hydroxytryptamine receptor 5A (Homo sapiens) (P47898 whole entry): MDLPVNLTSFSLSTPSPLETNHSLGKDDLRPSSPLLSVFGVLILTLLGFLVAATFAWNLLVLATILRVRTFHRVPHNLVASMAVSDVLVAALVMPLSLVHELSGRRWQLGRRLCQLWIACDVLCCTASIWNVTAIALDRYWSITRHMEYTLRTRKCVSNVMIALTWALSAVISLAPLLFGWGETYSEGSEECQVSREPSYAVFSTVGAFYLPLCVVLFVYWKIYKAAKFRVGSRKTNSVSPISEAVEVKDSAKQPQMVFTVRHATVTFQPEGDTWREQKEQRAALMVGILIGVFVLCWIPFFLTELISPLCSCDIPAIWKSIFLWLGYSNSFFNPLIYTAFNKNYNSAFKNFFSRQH
# [20] = target: Neuromedin-K receptor (Homo sapiens) (UniProt P29371); test: NK3 (h) Ligand binding assay; settings: Compound concentration 10.0 uM
# [21] = target: T2, Muscarinic acetylcholine receptor M1 (Homo sapiens) (UniProt P11229); test: M1 (h) Ligand binding assay; settings: Compound concentration 10.0 uM
# T2 sequence (whole entry): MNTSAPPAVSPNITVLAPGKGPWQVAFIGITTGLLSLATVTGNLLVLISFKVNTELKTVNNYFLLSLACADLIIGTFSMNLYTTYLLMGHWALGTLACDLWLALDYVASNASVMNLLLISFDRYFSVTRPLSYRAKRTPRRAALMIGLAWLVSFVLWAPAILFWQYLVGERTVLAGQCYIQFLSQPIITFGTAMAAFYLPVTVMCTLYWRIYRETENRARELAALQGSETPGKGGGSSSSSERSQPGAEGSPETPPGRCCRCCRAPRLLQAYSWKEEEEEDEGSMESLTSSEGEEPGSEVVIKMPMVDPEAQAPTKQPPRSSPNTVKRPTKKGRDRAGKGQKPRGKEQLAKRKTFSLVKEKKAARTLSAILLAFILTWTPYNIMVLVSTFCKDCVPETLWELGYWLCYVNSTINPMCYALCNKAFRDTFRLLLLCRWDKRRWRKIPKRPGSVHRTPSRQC
# [22] = target: Beta-2 adrenergic receptor (Homo sapiens) (UniProt P07550); test: beta2 (h) Ligand binding assay; settings: Compound concentration 10.0 uM
# Sequence of Beta-2 adrenergic receptor (Homo sapiens) (P07550 whole entry, looked up): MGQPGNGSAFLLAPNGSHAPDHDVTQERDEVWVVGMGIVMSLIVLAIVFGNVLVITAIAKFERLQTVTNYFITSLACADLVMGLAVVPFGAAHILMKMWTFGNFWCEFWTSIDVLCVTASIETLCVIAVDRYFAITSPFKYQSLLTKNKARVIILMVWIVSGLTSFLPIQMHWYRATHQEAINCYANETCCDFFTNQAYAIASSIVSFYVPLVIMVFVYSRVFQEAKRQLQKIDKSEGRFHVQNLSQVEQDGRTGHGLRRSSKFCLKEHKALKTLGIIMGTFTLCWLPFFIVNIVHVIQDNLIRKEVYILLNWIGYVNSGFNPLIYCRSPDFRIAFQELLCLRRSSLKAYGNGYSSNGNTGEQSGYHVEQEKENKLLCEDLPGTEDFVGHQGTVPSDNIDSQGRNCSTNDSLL
# [23] = target: Atrial natriuretic peptide receptor 1 (Homo sapiens) (UniProt P16066); test: ANP Ligand binding assay; settings: Compound concentration 10.0 uM
# [24] = target: Histamine H2 receptor (Homo sapiens) (UniProt P25021); test: H2 Ligand binding assay; settings: Compound concentration 10.0 uM
# [25] = target: Cannabinoid receptor 2 (Homo sapiens) (UniProt P34972); test: CB2 (h) (peripheral) Ligand binding assay; settings: Compound concentration 10.0 uM
# Sequence of Cannabinoid receptor 2 (Homo sapiens) (P34972 whole entry): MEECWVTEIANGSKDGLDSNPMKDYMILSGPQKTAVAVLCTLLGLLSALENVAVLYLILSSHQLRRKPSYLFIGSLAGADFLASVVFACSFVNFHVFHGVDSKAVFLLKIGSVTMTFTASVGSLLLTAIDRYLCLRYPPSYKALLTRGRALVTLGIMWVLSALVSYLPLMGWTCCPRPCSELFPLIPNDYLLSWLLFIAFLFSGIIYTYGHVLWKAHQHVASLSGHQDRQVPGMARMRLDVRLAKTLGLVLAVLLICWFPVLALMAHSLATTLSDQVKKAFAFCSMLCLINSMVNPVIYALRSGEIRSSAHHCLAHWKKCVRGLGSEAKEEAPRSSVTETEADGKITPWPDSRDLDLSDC
# [26] = target: Protein farnesyltransferase (Bos taurus, UniProt P29702+P49355); test: Scintillation proximity assay (SPA); type: protein-complex assay
# [27] = target: Sigma non-opioid intracellular receptor 1 (Homo sapiens, UniProt Q99720); test: GPCRScan assay: inhibition of Sigma 1; design: radioligand conc. used [nm] 4.0 – 5.0, parental cells HEKT
# Sequence of Sigma non-opioid intracellular receptor 1 (Q99720 whole entry): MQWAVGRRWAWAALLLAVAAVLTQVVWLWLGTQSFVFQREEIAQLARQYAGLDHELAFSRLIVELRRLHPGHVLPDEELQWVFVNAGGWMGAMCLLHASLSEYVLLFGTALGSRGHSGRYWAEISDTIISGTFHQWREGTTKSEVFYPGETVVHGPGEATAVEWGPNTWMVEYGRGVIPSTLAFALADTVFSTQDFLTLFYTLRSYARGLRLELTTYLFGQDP
# [28] = target: D(2) dopamine receptor (Homo sapiens) (UniProt P14416); settings: Compound concentration 10.0 uM
compound,measurement,setting,value
Cn1cncc1[C@](O)(COc1ccc(C#N)cc1-c1ccc(OC(F)(F)F)cc1)c1ccc(C#N)cc1 [ABT-100],Kd,Aurora kinase B,> 10 µM (not active)
same,inhibition,[1],22%
same,inhibition,[2],< 10%
same,EC50,[3],0.00073 µM (active)
same,inhibition at 10 µM,[4],< 10% (not active)
same,inhibition,[5],< 10%
same,inhibition,[6]; Compound concentration 3.0 uM,31%
same,inhibition,[6]; Compound concentration 10.0 uM,68%
same,inhibition,[7],18%
same,Kd,[8],> 10 µM (not active)
same,inhibition,[9]; Compound concentration 0.3 uM,14%
same,inhibition,[9]; Compound concentration 1.0 uM,75%
same,inhibition,[9]; Compound concentration 3.0 uM,97%
same,inhibition,[9]; Compound concentration 10.0 uM,100%
same,inhibition,[10],36%
same,inhibition,[11],< 10%
same,inhibition,[12],24%
same,inhibition,[13],< 10%
same,inhibition,[14]; Compound concentration 0.3 uM,23%
same,inhibition,[14]; Compound concentration 10.0 uM,60%
same,inhibition,[15],14%
same,inhibition,[16],< 10%
same,inhibition,[17],< 10%
same,inhibition,[18],< 10%
same,inhibition,[19],30%
same,inhibition,[20],45%
same,inhibition,[21],< 10%
same,inhibition,[22],10%
same,inhibition,[23],< 10%
same,inhibition,[24],53%
same,inhibition,[25],< 10%
Cn1cncc1[C@@](O)(COc1ccc(C#N)cc1-c1ccc(OC(F)(F)F)cc1)c1ccc(C#N)cc1 [A-108],IC50,[26],> 0.1 µM (not active)
same,Ki,[27],0.0916 µM
same,inhibition,[28],7.47%
